Key:
[1] = system: PKC phosphorylation of the D1DAR; assay: In situ phosphorylation assay, HEK293T cells expressing the D1DAR; assay type: cell-based, rat; conditions: cells treated 30 min with 1 μM phorbol ester, Fig. 1A
WT D1DAR = WT D1DAR (Rattus norvegicus, UniProt P18901); assay: cAMP accumulation assay, HEK293T cells expressing WT D1DAR; assay type: cell-based; conditions: 1 μM PMA 30 min or 3 μM Gö6983 1 hr
PKC-null D1DAR = PKC-null D1DAR (Rattus norvegicus, UniProt P18901, S259A/S397A/S398A/S417A/S421A); assay: cAMP accumulation assay, HEK293T cells expressing PKC-null D1DAR; assay type: cell-based; conditions: 1 μM PMA 30 min or 3 μM Gö6983 1 hr
Sequence of PKC-null D1DAR (P18901 whole entry S259A/S397A/S398A/S417A/S421A): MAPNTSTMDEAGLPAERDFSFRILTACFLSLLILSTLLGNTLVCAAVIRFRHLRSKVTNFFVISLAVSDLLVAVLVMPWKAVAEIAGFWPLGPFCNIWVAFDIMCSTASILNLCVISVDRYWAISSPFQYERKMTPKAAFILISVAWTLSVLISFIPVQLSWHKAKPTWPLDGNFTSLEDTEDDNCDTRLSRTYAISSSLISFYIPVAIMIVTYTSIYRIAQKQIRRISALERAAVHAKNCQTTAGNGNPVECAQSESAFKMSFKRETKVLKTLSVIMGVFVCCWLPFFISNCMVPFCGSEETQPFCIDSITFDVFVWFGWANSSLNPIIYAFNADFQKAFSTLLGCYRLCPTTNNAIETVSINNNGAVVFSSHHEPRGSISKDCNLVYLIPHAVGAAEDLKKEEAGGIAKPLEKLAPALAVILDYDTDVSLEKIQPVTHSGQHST

Sequence of WT D1DAR (P18901 whole entry): as the sequence (P18901 whole entry S259A/S397A/S398A/S417A/S421A) above, with A259S, A397S, A398S, A417S, A421S counted along it

CCCCCCCCCC(=O)O[C@@H]1[C@@H](C)[C@@]2(O)[C@@H](C=C(CO)C[C@@]3(O)C(=O)C(C)=C[C@@H]23)[C@@H]2C(C)(C)[C@]12OC(=O)CCCCCCCCC [4αPDD, 4α-phorbol-12,13-didecanoate]
D1DAR phosphorylation above basal [1]: inactive

COc1ccc2c(c1)c(C1=C(c3c[nH]c4ccccc34)C(=O)NC1=O)cn2CCCN(C)C [Gö6983]
effect of pretreatment on maximal DA-stimulated cAMP accumulation (WT D1DAR): potentiation of the maximal amount of D1DAR-stimulated cAMP accumulation | effect of pretreatment on maximal DA-stimulated cAMP accumulation (PKC-null D1DAR): no longer displays an enhancement of cAMP accumulation

CCCC(=O)O[C@@H]1[C@@H](C)[C@@]2(O)[C@@H](C=C(CO)C[C@]3(O)C(=O)C(C)=C[C@@H]23)[C@@H]2C(C)(C)[C@]12OC(=O)CCC [PDBu, phorbol 12,13 dibutyrate]
D1DAR phosphorylation above basal [1]: robust increase in phosphorylation

CCCCCCCCCCCCCC(=O)O[C@@H]1[C@@H](C)[C@@]2(O)[C@@H](C=C(CO)C[C@]3(O)C(=O)C(C)=C[C@@H]23)[C@@H]2C(C)(C)[C@]12OC(C)=O [PMA, phorbol 12-myristate 13-acetate]
D1DAR phosphorylation above basal [1]: robust increase in phosphorylation | effect of pretreatment on maximal DA-stimulated cAMP accumulation (WT D1DAR): potentiation of the maximal amount of D1DAR-stimulated cAMP accumulation | effect of pretreatment on maximal DA-stimulated cAMP accumulation (PKC-null D1DAR): potentiation of maximal cAMP accumulation

From PMC2996484 (Journal of neurochemistry, 2010)
